Experimental data published in patent US7517874B2 (priority 2007, dated 2009).
Where two headings read alike, the source gives them in different places.

What was measured:
[1] = biological target: human CB1 receptor (hCB1) (Homo sapiens, UniProt P21554); experiment: cell-based; assay type: cell-based
Procedure, shortened: (§1)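 Readout: LANCE TR-FRET cAMP, back-calculated from a concurrent standard curve and scaled between forskolin-only and forskolin + 1 μM CP55,940 wells. EC50 and intrinsic activity came from four-parameter fits.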

rat CB2 receptor (rCB2) = biological target: T1, rat CB2 receptor (rCB2) (Rattus norvegicus, UniProt Q9QZN9); experiment: cell-based; assay type: cell-based; details: for +/− RCB2: agonist or inverse agonist at rCB2
T1 sequence (Q9QZN9 1-360): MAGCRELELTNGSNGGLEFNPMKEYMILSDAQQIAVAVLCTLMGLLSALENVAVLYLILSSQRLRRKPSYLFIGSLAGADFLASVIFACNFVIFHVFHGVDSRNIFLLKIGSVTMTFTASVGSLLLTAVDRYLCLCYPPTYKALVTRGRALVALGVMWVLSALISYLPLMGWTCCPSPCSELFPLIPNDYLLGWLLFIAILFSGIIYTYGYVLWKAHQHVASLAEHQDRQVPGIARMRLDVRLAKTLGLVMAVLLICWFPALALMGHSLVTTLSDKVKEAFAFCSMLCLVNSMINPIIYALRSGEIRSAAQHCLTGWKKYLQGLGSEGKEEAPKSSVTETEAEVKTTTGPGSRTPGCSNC
Procedure, shortened: as §1

Sequence of human CB1 receptor (hCB1) (P21554 whole entry): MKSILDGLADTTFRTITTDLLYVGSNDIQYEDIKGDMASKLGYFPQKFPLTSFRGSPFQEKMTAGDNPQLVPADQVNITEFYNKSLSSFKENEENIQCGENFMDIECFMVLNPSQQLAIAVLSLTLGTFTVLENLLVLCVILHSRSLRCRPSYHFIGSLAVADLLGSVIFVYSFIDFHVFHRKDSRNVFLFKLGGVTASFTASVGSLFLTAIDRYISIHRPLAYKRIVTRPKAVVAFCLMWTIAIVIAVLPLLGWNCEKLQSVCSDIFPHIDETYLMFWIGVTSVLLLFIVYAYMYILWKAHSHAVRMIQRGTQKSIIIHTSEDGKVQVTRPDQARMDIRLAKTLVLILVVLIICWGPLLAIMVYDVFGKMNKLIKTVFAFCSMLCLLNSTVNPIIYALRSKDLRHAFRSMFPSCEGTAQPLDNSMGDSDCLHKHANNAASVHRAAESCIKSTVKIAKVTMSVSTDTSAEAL

Compound | EC50 [1] | +/− RCB2 (rat CB2 receptor (rCB2)) | EC50 (rat CB2 receptor (rCB2)) | EC50 ([1]; groups >100 nM-10 μM and >10 μM, cAMP, CHO-K1 hCB1, read-out: EC50 HCB1) | EC50 (rat CB2 receptor (rCB2); groups >100 nM-10 μM and >10 μM, cAMP, CHO-K1 rCB2, read-out: EC50 RCB2)
CNC(=O)[C@@H](NC(=O)c1nc(-c2csc3ccccc23)n2c1CN(C)CC2)C(C)(C)C [Compound 75, (S)-3-(benzo[b]thiophen-3-yl)-N-(3,3-dimethyl-1-(methylamino)-1-oxobutan-2-yl)-7-methyl-5,6,7,8-tetrahydroimidazo[1,5-a]pyrazine-1-carboxamide] | > 10000 nM | + |  |  | 
CNC(=O)[C@@H](NC(=O)c1nc(-c2ccsc2)n2c1CN(Cc1cncnc1)CC2)C(C)(C)C [Compound 76, (S)-N-(3,3-dimethyl-1-(methylamino)-1-oxobutan-2-yl)-7-(pyrimidin-5-ylmethyl)-3-(thiophen-3-yl)-5,6,7,8-tetrahydroimidazo[1,5-a]pyrazine-1-carboxamide] | > 10000 nM | + |  |  | 
CNC(=O)[C@H](C)NC(=O)c1nc(-c2ccccc2)n2c1CN(Cc1cncnc1)CC2 [Compound 77, (S)-N-(1-(methylamino)-1-oxopropan-2-yl)-3-phenyl-7-(pyrimidin-5-ylmethyl)-5,6,7,8-tetrahydroimidazo[1,5-a]pyrazine-1-carboxamide] | > 10000 nM |  | > 10000 nM |  | 
CN1CCn2c(-c3ccccc3)nc(C(=O)N[C@H](C(=O)N(C)C)C(C)(C)C)c2C1 [Compound 79, (S)-N-(1-(dimethylamino)-3,3-dimethyl-1-oxobutan-2-yl)-7-methyl-3-phenyl-5,6,7,8-tetrahydroimidazo[1,5-a]pyrazine-1-carboxamide] | > 10000 nM | − |  |  | 
CC(C)CN1CCn2c(-c3ccccc3)nc(C(=O)N[C@H](C(=O)N(C)C)C(C)(C)C)c2C1 [Compound 80, (S)-N-(1-(dimethylamino)-3,3-dimethyl-1-oxobutan-2-yl)-7-isobutyl-3-phenyl-5,6,7,8-tetrahydroimidazo[1,5-a]pyrazine-1-carboxamide] | > 10000 nM | − |  |  | 
CN1CCn2c(-c3ccccc3)nc(C(=O)NCC(C)(C)CO)c2C1 [Compound 82, N-(3-hydroxy-2,2-dimethylpropyl)-7-methyl-3-phenyl-5,6,7,8-tetrahydroimidazo[1,5-a]pyrazine-1-carboxamide] |  |  |  | > 10000 nM | > 10000 nM
CNC(=O)[C@@H](NC(=O)c1nc(-c2ccccc2)n2c1CN(C(C)C)CC2)C(C)(C)C [Compound 85, (S)-N-(3,3-dimethyl-1-(methylamino)-1-oxobutan-2-yl)-7-isopropyl-3-phenyl-5,6,7,8-tetrahydroimidazo[1,5-a]pyrazine-1-carboxamide] | > 10000 nM | − |  |  | 
COC(=O)[C@@H](NC(=O)c1nc(-c2ccccc2)n2c1CN(C)CC2)C(C)(C)C [Compound 86, (S)-methyl 3,3-dimethyl-2-(7-methyl-3-phenyl-5,6,7,8-tetrahydro-imidazo[1,5-a]pyrazine-1-carboxamido)butanoate] | > 10000 nM | + |  |  | 
Cc1noc([C@@H](NC(=O)c2nc(-c3ccccc3)n3c2CN(C)CC3)C(C)(C)C)n1 [Compound 87, (S)-N-(2,2-dimethyl-1-(3-methyl-1,2,4-oxadiazol-5-yl)propyl)-7-methyl-3-phenyl-5,6,7,8-tetrahydroimidazo[1,5-a]pyrazine-1-carboxamide] | > 10000 nM | − |  |  | 
Cc1noc([C@@H](NC(=O)c2nc(-c3ccccc3)n3c2CN(CC2CC2)CC3)C(C)(C)C)n1 [Compound 88, (S)-7-(cyclopropylmethyl)-N-(2,2-dimethyl-1-(3-methyl-1,2,4-oxadiazol-5-yl)propyl)-3-phenyl-5,6,7,8-tetrahydroimidazo[1,5-a]pyrazine-1-carboxamide] | > 10000 nM | − |  |  | 
Cc1noc([C@@H](NC(=O)c2nc(-c3ccccc3)n3c2CN(C(C)C)CC3)C(C)(C)C)n1 [Compound 89, (S)-N-(2,2-dimethyl-1-(3-methyl-1,2,4-oxadiazol-5-yl)propyl)-7-isopropyl-3-phenyl-5,6,7,8-tetrahydroimidazo[1,5-a]pyrazine-1-carboxamide] | > 10000 nM | − |  |  | 
Cc1noc([C@@H](NC(=O)c2nc(-c3ccccc3)n3c2CN(CC(C)C)CC3)C(C)(C)C)n1 [Compound 90, (S)-N-(2,2-dimethyl-1-(3-methyl-1,2,4-oxadiazol-5-yl)propyl)-7-isobutyl-3-phenyl-5,6,7,8-tetrahydroimidazo[1,5-a]pyrazine-1-carboxamide] | > 10000 nM | − |  |  | 
CNC(=O)[C@@H](NC(=O)c1nc(-c2ccccc2)n2c1CN(S(C)(=O)=O)CC2)C(C)(C)C [Compound 92, (S)-N-(3,3-dimethyl-1-(methylamino)-1-oxobutan-2-yl)-7-(methylsulfonyl)-3-phenyl-5,6,7,8-tetrahydroimidazo[1,5-a]pyrazine-1-carboxamide] | > 10000 nM | − |  |  | 
CNC(=O)[C@@H](NC(=O)c1nc(-c2ccccc2)n2c1CN(S(=O)(=O)c1ccc(F)cc1)CC2)C(C)(C)C [Compound 93, (S)-N-(3,3-dimethyl-1-(methylamino)-1-oxobutan-2-yl)-7-(4-fluorophenylsulfonyl)-3-phenyl-5,6,7,8-tetrahydroimidazo[1,5-a]pyrazine-1-carboxamide] | > 10000 nM | − |  |  | 
CNC(=O)[C@@H](NC(=O)c1nc(-c2ccccc2)n2c1CN(S(=O)(=O)C(C)C)CC2)C(C)(C)C [Compound 94, (S)-N-(3,3-dimethyl-1-(methylamino)-1-oxobutan-2-yl)-7-(isopropylsulfonyl)-3-phenyl-5,6,7,8-tetrahydroimidazo[1,5-a]pyrazine-1-carboxamide] | > 10000 nM | − |  |  | 
CNC(=O)[C@@H](NC(=O)c1nc(-c2ccccc2)n2c1CN(S(=O)(=O)CC(C)C)CC2)C(C)(C)C [Compound 95, (S)-N-(3,3-dimethyl-1-(methylamino)-1-oxobutan-2-yl)-7-(isobutylsulfonyl)-3-phenyl-5,6,7,8-tetrahydroimidazo[1,5-a]pyrazine-1-carboxamide] | > 10000 nM | − |  |  | 
CNC(=O)[C@@H](NC(=O)c1nc(-c2ccccc2)n2c1CN(S(=O)(=O)c1ccccc1)CC2)C(C)(C)C [Compound 96, (S)-N-(3,3-dimethyl-1-(methylamino)-1-oxobutan-2-yl)-3-phenyl-7-(phenylsulfonyl)-5,6,7,8-tetrahydroimidazo[1,5-a]pyrazine-1-carboxamide] | > 10000 nM | − |  |  | 
CNC(=O)[C@@H](NC(=O)c1nc(-c2ccccc2)n2c1CN(S(=O)(=O)c1ccccc1[N+](=O)[O-])CC2)C(C)(C)C [Compound 97, (S)-N-(3,3-dimethyl-1-(methylamino)-1-oxobutan-2-yl)-7-(2-nitrophenylsulfonyl)-3-phenyl-5,6,7,8-tetrahydroimidazo[1,5-a]pyrazine-1-carboxamide] | > 10000 nM | − |  |  | 
CNC(=O)[C@@H](NC(=O)c1nc(-c2ccccc2)n2c1CN(S(=O)(=O)c1ccccc1F)CC2)C(C)(C)C [Compound 98, (S)-N-(3,3-dimethyl-1-(methylamino)-1-oxobutan-2-yl)-7-(2-fluorophenylsulfonyl)-3-phenyl-5,6,7,8-tetrahydroimidazo[1,5-a]pyrazine-1-carboxamide] | > 10000 nM | − |  |  | 
CNC(=O)[C@@H](NC(=O)c1nc(-c2ccccc2)n2c1CN(S(=O)(=O)c1cccc(F)c1)CC2)C(C)(C)C [Compound 99, (S)-N-(3,3-dimethyl-1-(methylamino)-1-oxobutan-2-yl)-7-(3-fluorophenylsulfonyl)-3-phenyl-5,6,7,8-tetrahydroimidazo[1,5-a]pyrazine-1-carboxamide] | > 10000 nM | − |  |  | 
CNC(=O)[C@@H](NC(=O)c1nc(-c2ccccc2)n2c1CN(S(=O)(=O)C1CC1)CC2)C(C)(C)C [Compound 100, (S)-7-(cyclopropylsulfonyl)-N-(3,3-dimethyl-1-(methylamino)-1-oxobutan-2-yl)-3-phenyl-5,6,7,8-tetrahydroimidazo[1,5-a]pyrazine-1-carboxamide] | > 10000 nM | − |  |  | 
CC(C)(C)[C@@H](CO)NC(=O)c1nc(-c2ccccc2)n2c1CN(S(=O)(=O)c1ccc(F)cc1)CC2 [Compound 101, (S)-7-(4-fluorophenylsulfonyl)-N-(1-hydroxy-3,3-dimethylbutan-2-yl)-3-phenyl-5,6,7,8-tetrahydroimidazo[1,5-a]pyrazine-1-carboxamide] | > 10000 nM | − |  |  | 
CC(C)(C)[C@@H](CO)NC(=O)c1nc(-c2ccccc2)n2c1CN(S(=O)(=O)c1ccccc1)CC2 [Compound 102, (S)-N-(1-hydroxy-3,3-dimethylbutan-2-yl)-3-phenyl-7-(phenylsulfonyl)-5,6,7,8-tetrahydroimidazo[1,5-a]pyrazine-1-carboxamide] | > 10000 nM | − |  |  | 
CC(C)(C)CNC(=O)c1nc(-c2ccccc2)n2c1CN(S(=O)(=O)c1ccc(F)cc1)CC2 [Compound 103, 7-(4-fluorophenylsulfonyl)-N-neopentyl-3-phenyl-5,6,7,8-tetrahydroimidazo[1,5-a]pyrazine-1-carboxamide] | > 10000 nM | − |  |  | 
CC(C)(C)CNC(=O)c1nc(-c2ccccc2)n2c1CN(S(=O)(=O)c1ccccc1)CC2 [Compound 104, N-neopentyl-3-phenyl-7-(phenylsulfonyl)-5,6,7,8-tetrahydroimidazo[1,5-a]pyrazine-1-carboxamide] | > 10000 nM | − |  |  | 
